# Measurements: ChEMBL document CHEMBL4041467, “Synthesis of novel 15-membered 8a-azahomoerythromycin A acylides: Consequences of structural modification at the C-3 and C-6 position on antibacterial activity” (Eur J Med Chem, 2017)
# Experiments:
# Format in all cases: functional
# Haemophilus influenzae = assay: Antibacterial activity against Haemophilus influenzae by agar microdilution method
# Staphylococcus aureus [1] = assay: Antibacterial activity against inducibly macrolide/lincosamide/streptogramin B-resistant Staphylococcus aureus by agar microdilution method
# Streptococcus pneumoniae [2] = assay: Antibacterial activity against erythromycin susceptible Streptococcus pneumoniae by agar microdilution method
# Staphylococcus aureus [3] = assay: Antibacterial activity against constitutively macrolide/lincosamide/streptogramin B-resistant Staphylococcus aureus by agar microdilution method
# Streptococcus pyogenes [4] = assay: Antibacterial activity against constitutively macrolide/lincosamide/streptogramin B-resistant Streptococcus pyogenes by agar microdilution method
# Streptococcus pneumoniae [5] = assay: Antibacterial activity against constitutively macrolide/lincosamide/streptogramin B-resistant Streptococcus pneumoniae by agar microdilution method
# Streptococcus pneumoniae [6] = assay: Antibacterial activity against Mef-mediated macrolide efflux resistant Streptococcus pneumoniae by agar microdilution method
# Streptococcus pyogenes [7] = assay: Antibacterial activity against Mef-mediated macrolide efflux resistant Streptococcus pyogenes by agar microdilution method
# Staphylococcus aureus [8] = assay: Antibacterial activity against erythromycin susceptible Staphylococcus aureus by agar microdilution method
# Streptococcus pyogenes [9] = assay: Antibacterial activity against erythromycin susceptible Streptococcus pyogenes by agar microdilution method
smiles,measurement,setting,value
C=CCO[C@]1(C)C[C@@H](C)NC(=O)[C@H](C)[C@@H](O)[C@](C)(O)[C@@H](CC)OC(=O)[C@H](C)[C@@H](OC(=O)CCNC(C)Cc2ccc([N+](=O)[O-])cc2)[C@H](C)[C@H]1O[C@@H]1O[C@H](C)C[C@H](N(C)C)[C@H]1O (stereo not given in full),MIC,Haemophilus influenzae,8 µg/mL
same,MIC,Staphylococcus aureus [1],1 µg/mL
same,MIC,Streptococcus pneumoniae [2],≤ 0.125 µg/mL
same,MIC,Staphylococcus aureus [3],> 64 µg/mL
same,MIC,Streptococcus pyogenes [4],> 64 µg/mL
same,MIC,Streptococcus pneumoniae [5],> 64 µg/mL
same,MIC,Streptococcus pneumoniae [6],0.5 µg/mL
same,MIC,Streptococcus pyogenes [7],1 µg/mL
same,MIC,Staphylococcus aureus [8],1 µg/mL
same,MIC,Streptococcus pyogenes [9],≤ 0.125 µg/mL
C=CCO[C@]1(C)C[C@@H](C)NC(=O)[C@H](C)[C@@H](O)[C@](C)(O)[C@@H](CC)OC(=O)[C@H](C)[C@@H](OC(=O)CCN2CCN(c3cc4c(=O)c(C(=O)O)cn(C5CC5)c4cc3Cl)CC2)[C@H](C)[C@H]1O[C@@H]1O[C@H](C)C[C@H](N(C)C)[C@H]1O,MIC,Haemophilus influenzae,4 µg/mL
same,MIC,Staphylococcus aureus [1],0.25 µg/mL
same,MIC,Streptococcus pneumoniae [2],≤ 0.125 µg/mL
same,MIC,Staphylococcus aureus [3],> 64 µg/mL
same,MIC,Streptococcus pyogenes [4],8 µg/mL
same,MIC,Streptococcus pneumoniae [5],4 µg/mL
same,MIC,Streptococcus pneumoniae [6],0.5 µg/mL
same,MIC,Streptococcus pyogenes [7],1 µg/mL
same,MIC,Staphylococcus aureus [8],≤ 0.125 µg/mL
same,MIC,Streptococcus pyogenes [9],≤ 0.125 µg/mL
C=CCO[C@]1(C)C[C@@H](C)NC(=O)[C@H](C)[C@@H](O)[C@](C)(O)[C@@H](CC)OC(=O)[C@H](C)[C@@H](OC(=O)CCN2CCN(c3ccc4c(c3)c(=O)c(C(=O)O)cn4C3CC3)CC2)[C@H](C)[C@H]1O[C@@H]1O[C@H](C)C[C@H](N(C)C)[C@H]1O,MIC,Haemophilus influenzae,16 µg/mL
same,MIC,Staphylococcus aureus [1],8 µg/mL
same,MIC,Streptococcus pneumoniae [2],2 µg/mL
same,MIC,Staphylococcus aureus [3],> 64 µg/mL
same,MIC,Streptococcus pyogenes [4],32 µg/mL
same,MIC,Streptococcus pneumoniae [5],16 µg/mL
same,MIC,Streptococcus pneumoniae [6],4 µg/mL
same,MIC,Streptococcus pyogenes [7],16 µg/mL
same,MIC,Staphylococcus aureus [8],4 µg/mL
same,MIC,Streptococcus pyogenes [9],4 µg/mL
C=CCO[C@]1(C)C[C@@H](C)NC(=O)[C@H](C)[C@@H](O)[C@](C)(O)[C@@H](CC)OC(=O)[C@H](C)[C@@H](OC(=O)CCN2CCN(C(=O)c3ccco3)CC2)[C@H](C)[C@H]1O[C@@H]1O[C@H](C)C[C@H](N(C)C)[C@H]1O,MIC,Haemophilus influenzae,8 µg/mL
same,MIC,Staphylococcus aureus [1],2 µg/mL
same,MIC,Streptococcus pneumoniae [2],0.5 µg/mL
same,MIC,Staphylococcus aureus [3],> 64 µg/mL
same,MIC,Streptococcus pyogenes [4],> 64 µg/mL
same,MIC,Streptococcus pneumoniae [5],> 64 µg/mL
same,MIC,Streptococcus pneumoniae [6],4 µg/mL
same,MIC,Streptococcus pyogenes [7],4 µg/mL
same,MIC,Staphylococcus aureus [8],2 µg/mL
same,MIC,Streptococcus pyogenes [9],0.5 µg/mL
C=CCO[C@]1(C)C[C@@H](C)NC(=O)[C@H](C)[C@@H](O)[C@](C)(O)[C@@H](CC)OC(=O)[C@H](C)[C@@H](OC(=O)CCNCCCCc2ccccc2)[C@H](C)[C@H]1O[C@@H]1O[C@H](C)C[C@H](N(C)C)[C@H]1O,MIC,Haemophilus influenzae,16 µg/mL
same,MIC,Staphylococcus aureus [1],8 µg/mL
same,MIC,Streptococcus pneumoniae [2],0.5 µg/mL
same,MIC,Staphylococcus aureus [3],> 64 µg/mL
same,MIC,Streptococcus pyogenes [4],> 64 µg/mL
same,MIC,Streptococcus pneumoniae [5],> 64 µg/mL
same,MIC,Streptococcus pneumoniae [6],4 µg/mL
same,MIC,Streptococcus pyogenes [7],2 µg/mL
same,MIC,Staphylococcus aureus [8],2 µg/mL
same,MIC,Streptococcus pyogenes [9],2 µg/mL
C=CCO[C@]1(C)C[C@@H](C)NC(=O)[C@H](C)[C@@H](O)[C@](C)(O)[C@@H](CC)OC(=O)[C@H](C)[C@@H](OC(=O)CCNC(C)C(=O)Nc2cnc3ccccc3c2)[C@H](C)[C@H]1O[C@@H]1O[C@H](C)C[C@H](N(C)C)[C@H]1O (stereo not given in full),MIC,Haemophilus influenzae,4 µg/mL
same,MIC,Staphylococcus aureus [1],1 µg/mL
same,MIC,Streptococcus pneumoniae [2],≤ 0.125 µg/mL
same,MIC,Staphylococcus aureus [3],> 64 µg/mL
same,MIC,Streptococcus pyogenes [4],8 µg/mL
same,MIC,Streptococcus pneumoniae [5],16 µg/mL
same,MIC,Streptococcus pneumoniae [6],0.25 µg/mL
same,MIC,Streptococcus pyogenes [7],1 µg/mL
same,MIC,Staphylococcus aureus [8],0.5 µg/mL
same,MIC,Streptococcus pyogenes [9],≤ 0.125 µg/mL
C=CCO[C@]1(C)C[C@@H](C)NC(=O)[C@H](C)[C@@H](O)[C@](C)(O)[C@@H](CC)OC(=O)[C@H](C)[C@@H](OC(=O)CCNC(C)C(=O)Nc2ccccc2)[C@H](C)[C@H]1O[C@@H]1O[C@H](C)C[C@H](N(C)C)[C@H]1O (stereo not given in full),MIC,Haemophilus influenzae,16 µg/mL
same,MIC,Staphylococcus aureus [1],4 µg/mL
same,MIC,Streptococcus pneumoniae [2],0.25 µg/mL
same,MIC,Staphylococcus aureus [3],> 64 µg/mL
same,MIC,Streptococcus pyogenes [4],> 64 µg/mL
same,MIC,Streptococcus pneumoniae [5],> 64 µg/mL
same,MIC,Streptococcus pneumoniae [6],1 µg/mL
same,MIC,Streptococcus pyogenes [7],2 µg/mL
same,MIC,Staphylococcus aureus [8],2 µg/mL
same,MIC,Streptococcus pyogenes [9],0.5 µg/mL
C=CCO[C@]1(C)C[C@@H](C)NC(=O)[C@H](C)[C@@H](O)[C@](C)(O)[C@@H](CC)OC(=O)[C@H](C)[C@@H](OC(=O)CCN(C)CCc2ccccc2)[C@H](C)[C@H]1O[C@@H]1O[C@H](C)C[C@H](N(C)C)[C@H]1O,MIC,Haemophilus influenzae,16 µg/mL
same,MIC,Staphylococcus aureus [1],4 µg/mL
same,MIC,Streptococcus pneumoniae [2],0.25 µg/mL
same,MIC,Staphylococcus aureus [3],> 64 µg/mL
same,MIC,Streptococcus pyogenes [4],> 64 µg/mL
same,MIC,Streptococcus pneumoniae [5],> 64 µg/mL
same,MIC,Streptococcus pneumoniae [6],2 µg/mL
same,MIC,Streptococcus pyogenes [7],8 µg/mL
same,MIC,Staphylococcus aureus [8],4 µg/mL
same,MIC,Streptococcus pyogenes [9],0.5 µg/mL
C=CCO[C@]1(C)C[C@@H](C)NC(=O)[C@H](C)[C@@H](O)[C@](C)(O)[C@@H](CC)OC(=O)[C@H](C)[C@@H](OC(=O)CCN2CCN(c3ccc(F)cc3)CC2)[C@H](C)[C@H]1O[C@@H]1O[C@H](C)C[C@H](N(C)C)[C@H]1O,MIC,Haemophilus influenzae,16 µg/mL
same,MIC,Staphylococcus aureus [1],4 µg/mL
same,MIC,Streptococcus pneumoniae [2],0.25 µg/mL
same,MIC,Staphylococcus aureus [3],> 64 µg/mL
same,MIC,Streptococcus pyogenes [4],> 64 µg/mL
same,MIC,Streptococcus pneumoniae [5],> 64 µg/mL
same,MIC,Streptococcus pneumoniae [6],2 µg/mL
same,MIC,Streptococcus pyogenes [7],2 µg/mL
same,MIC,Staphylococcus aureus [8],2 µg/mL
same,MIC,Streptococcus pyogenes [9],1 µg/mL
C=CCO[C@]1(C)C[C@@H](C)NC(=O)[C@H](C)[C@@H](O)[C@](C)(O)[C@@H](CC)OC(=O)[C@H](C)[C@@H](OC(=O)CCNC(C)Cc2ccccc2)[C@H](C)[C@H]1O[C@@H]1O[C@H](C)C[C@H](N(C)C)[C@H]1O (stereo not given in full),MIC,Haemophilus influenzae,8 µg/mL
same,MIC,Staphylococcus aureus [1],4 µg/mL
same,MIC,Streptococcus pneumoniae [2],1 µg/mL
same,MIC,Staphylococcus aureus [3],> 64 µg/mL
same,MIC,Streptococcus pyogenes [4],> 64 µg/mL
same,MIC,Streptococcus pneumoniae [5],> 64 µg/mL
same,MIC,Streptococcus pneumoniae [6],2 µg/mL
same,MIC,Streptococcus pyogenes [7],2 µg/mL
same,MIC,Staphylococcus aureus [8],4 µg/mL
same,MIC,Streptococcus pyogenes [9],1 µg/mL
C=CCO[C@]1(C)C[C@@H](C)NC(=O)[C@H](C)[C@@H](O)[C@](C)(O)[C@@H](CC)OC(=O)[C@H](C)[C@@H](OC(=O)CCNCCNc2cc3c(cc2F)c(=O)c(C(=O)O)cn3C2CC2)[C@H](C)[C@H]1O[C@@H]1O[C@H](C)C[C@H](N(C)C)[C@H]1O,MIC,Haemophilus influenzae,2 µg/mL
same,MIC,Staphylococcus aureus [1],0.25 µg/mL
same,MIC,Streptococcus pneumoniae [2],0.25 µg/mL
same,MIC,Staphylococcus aureus [3],> 64 µg/mL
same,MIC,Streptococcus pyogenes [4],16 µg/mL
same,MIC,Streptococcus pneumoniae [5],2 µg/mL
same,MIC,Streptococcus pneumoniae [6],0.5 µg/mL
same,MIC,Streptococcus pyogenes [7],0.5 µg/mL
same,MIC,Staphylococcus aureus [8],0.25 µg/mL
same,MIC,Streptococcus pyogenes [9],0.25 µg/mL
C=CCO[C@]1(C)C[C@@H](C)NC(=O)[C@H](C)[C@@H](O)[C@](C)(O)[C@@H](CC)OC(=O)[C@H](C)[C@@H](OC(=O)CCNC(C)C(=O)Nc2ccc3ncccc3c2)[C@H](C)[C@H]1O[C@@H]1O[C@H](C)C[C@H](N(C)C)[C@H]1O (stereo not given in full),MIC,Haemophilus influenzae,4 µg/mL
same,MIC,Staphylococcus aureus [1],0.5 µg/mL
same,MIC,Streptococcus pneumoniae [2],≤ 0.125 µg/mL
same,MIC,Staphylococcus aureus [3],> 64 µg/mL
same,MIC,Streptococcus pyogenes [4],4 µg/mL
same,MIC,Streptococcus pneumoniae [5],8 µg/mL
same,MIC,Streptococcus pneumoniae [6],0.25 µg/mL
same,MIC,Streptococcus pyogenes [7],0.25 µg/mL
same,MIC,Staphylococcus aureus [8],0.5 µg/mL
same,MIC,Streptococcus pyogenes [9],≤ 0.125 µg/mL
C=CCO[C@]1(C)C[C@@H](C)NC(=O)[C@H](C)[C@@H](O)[C@](C)(O)[C@@H](CC)OC(=O)[C@H](C)[C@@H](OC(=O)CCN2CCN(c3cc4c(cc3F)c(=O)c(C(=O)OC)cn4C3CC3)CC2)[C@H](C)[C@H]1O[C@@H]1O[C@H](C)C[C@H](N(C)C)[C@H]1O,MIC,Haemophilus influenzae,8 µg/mL
same,MIC,Staphylococcus aureus [1],4 µg/mL
same,MIC,Streptococcus pneumoniae [2],2 µg/mL
same,MIC,Staphylococcus aureus [3],> 64 µg/mL
same,MIC,Streptococcus pyogenes [4],32 µg/mL
same,MIC,Streptococcus pneumoniae [5],8 µg/mL
same,MIC,Streptococcus pneumoniae [6],4 µg/mL
same,MIC,Streptococcus pyogenes [7],8 µg/mL
same,MIC,Staphylococcus aureus [8],2 µg/mL
same,MIC,Streptococcus pyogenes [9],2 µg/mL
C=CCO[C@]1(C)C[C@@H](C)NC(=O)[C@H](C)[C@@H](O)[C@](C)(O)[C@@H](CC)OC(=O)[C@H](C)[C@@H](OC(=O)CCNC(C)Cc2ccc(OC)cc2)[C@H](C)[C@H]1O[C@@H]1O[C@H](C)C[C@H](N(C)C)[C@H]1O (stereo not given in full),MIC,Haemophilus influenzae,16 µg/mL
same,MIC,Staphylococcus aureus [1],2 µg/mL
same,MIC,Streptococcus pneumoniae [2],0.5 µg/mL
same,MIC,Staphylococcus aureus [3],> 64 µg/mL
same,MIC,Streptococcus pyogenes [4],> 64 µg/mL
same,MIC,Streptococcus pneumoniae [5],> 64 µg/mL
same,MIC,Streptococcus pneumoniae [6],2 µg/mL
same,MIC,Streptococcus pyogenes [7],4 µg/mL
same,MIC,Staphylococcus aureus [8],2 µg/mL
same,MIC,Streptococcus pyogenes [9],0.25 µg/mL
C=CCO[C@]1(C)C[C@@H](C)NC(=O)[C@H](C)[C@@H](O)[C@](C)(O)[C@@H](CC)OC(=O)[C@H](C)[C@@H](OC(=O)CCNC(C)C(=O)Nc2ccc([N+](=O)[O-])cc2)[C@H](C)[C@H]1O[C@@H]1O[C@H](C)C[C@H](N(C)C)[C@H]1O (stereo not given in full),MIC,Haemophilus influenzae,8 µg/mL
same,MIC,Staphylococcus aureus [1],1 µg/mL
same,MIC,Streptococcus pneumoniae [2],≤ 0.125 µg/mL
same,MIC,Staphylococcus aureus [3],> 64 µg/mL
same,MIC,Streptococcus pyogenes [4],> 64 µg/mL
same,MIC,Streptococcus pneumoniae [5],> 64 µg/mL
same,MIC,Streptococcus pneumoniae [6],0.25 µg/mL
same,MIC,Streptococcus pyogenes [7],0.5 µg/mL
same,MIC,Staphylococcus aureus [8],1 µg/mL
same,MIC,Streptococcus pyogenes [9],≤ 0.125 µg/mL
